Experiments:
Conditions in all cases: incubation time: 72 h
BT-549 [1] = test: normalised response (% of control), CellTiter-Glo; higher = more viable cells (100 = DMSO, 0 = benzethonium chloride kill control)
Procedure: (§1)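 DSRT, 72 h incubation, CellTox Green / CellTiter-Glo readout. Signal is normalised to DMSO and benzethonium chloride controls. Value is the normalised response at dose 3.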

SK-BR-3 = test: as above
Procedure: as §1

HDQ-P1 [2] = test: as above
Procedure: as §1

MDA-MB-453 [3] = test: as above
Procedure: as §1

DU-4475 [4] = test: as above
Procedure: as §1

MFM-223 [5] = test: as above
Procedure: as §1

HCC1599 [6] = test: as above
Procedure: as §1

HCC1937 [7] = test: as above
Procedure: as §1

MDA-MB-468 [8] = test: as above
Procedure: as §1

MCF-10A [9] = test: as above
Procedure: as §1

CAL-85-1 [10] = test: as above
Procedure: as §1

MDA-MB-436 [11] = test: as above
Procedure: as §1

CAL-120 [12] = test: as above
Procedure: as §1

BT-474 [13] = test: as above
Procedure: as §1

Hs578T [14] = test: as above
Procedure: as §1

HCC1143 [15] = test: as above
Procedure: as §1

CAL-148 [16] = test: as above
Procedure: as §1

MDA-MB-231 [17] = test: as above
Procedure: as §1

CAL-51 [18] = test: as above
Procedure: as §1

BT-549 [19] = test: normalised response (% of control), CellTox Green; higher = less cell death (100 = DMSO, 0 = benzethonium chloride kill control)
In short: (§2)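 Plates were normalised with 0.1 % DMSO as 100 and a positive kill control as 0. Breast cancer cell lines in 20 µl suspension had been seeded into 384-well plates with compound at 5 concentrations in 10-fold steps over a compound-specific 10,000-fold range, incubated 72 h, and read for CellTox Green fluorescence (485/520 nm) followed by CellTiter-Glo luminescence. Each value is the normalised signal at a single concentration.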

HDQ-P1 [20] = test: as above
In short: as §2

MDA-MB-453 [21] = test: as above
In short: as §2

DU-4475 [22] = test: as above
In short: as §2

MFM-223 [23] = test: as above
In short: as §2

HCC1599 [24] = test: as above
In short: as §2

HCC1937 [25] = test: as above
In short: as §2

MDA-MB-468 [26] = test: as above
In short: as §2

MCF-10A [27] = test: as above
In short: as §2

CAL-85-1 [28] = test: as above
In short: as §2

MDA-MB-436 [29] = test: as above
In short: as §2

CAL-120 [30] = test: as above
In short: as §2

BT-474 [31] = test: as above
In short: as §2

Hs578T [32] = test: as above
In short: as §2

HCC1143 [33] = test: as above
In short: as §2

CAL-148 [34] = test: as above
In short: as §2

MDA-MB-231 [35] = test: as above
In short: as §2

CAL-51 [36] = test: as above
In short: as §2

Structure (SMILES) | normalised response (BT-549 [1]) [%] | normalised response (SK-BR-3) [%] | normalised response (HDQ-P1 [2]) [%] | normalised response (MDA-MB-453 [3]) [%] | normalised response (DU-4475 [4]) [%] | normalised response (MFM-223 [5]) [%] | normalised response (HCC1599 [6]) [%] | normalised response (HCC1937 [7]) [%] | normalised response (MDA-MB-468 [8]) [%] | normalised response (MCF-10A [9]) [%] | normalised response (CAL-85-1 [10]) [%] | normalised response (MDA-MB-436 [11]) [%] | normalised response (CAL-120 [12]) [%] | normalised response (BT-474 [13]) [%] | normalised response (Hs578T [14]) [%] | normalised response (HCC1143 [15]) [%] | normalised response (CAL-148 [16]) [%] | normalised response (MDA-MB-231 [17]) [%] | normalised response (CAL-51 [18]) [%] | normalised response (BT-549 [19]) [%] | normalised response (HDQ-P1 [20]) [%] | normalised response (MDA-MB-453 [21]) [%] | normalised response (DU-4475 [22]) [%] | normalised response (MFM-223 [23]) [%] | normalised response (HCC1599 [24]) [%] | normalised response (HCC1937 [25]) [%] | normalised response (MDA-MB-468 [26]) [%] | normalised response (MCF-10A [27]) [%] | normalised response (CAL-85-1 [28]) [%] | normalised response (MDA-MB-436 [29]) [%] | normalised response (CAL-120 [30]) [%] | normalised response (BT-474 [31]) [%] | normalised response (Hs578T [32]) [%] | normalised response (HCC1143 [33]) [%] | normalised response (CAL-148 [34]) [%] | normalised response (MDA-MB-231 [35]) [%] | normalised response (CAL-51 [36]) [%]
O=C(O)CNC(=O)c1c(O)c2ccccc2n(Cc2ccccc2)c1=O [IOX-2] (500 nM) | 94.7 | 96.3 | 102 | 105 | 101 | 97.1 | 98.5 | 97.2 | 90.4 | 104 | 99 | 94.4 | 103 | 99.2 | 99.4 | 98.4 | 92.9 | 100 | 61.5 | 97.3 | 100 | 104 | 111 | 101 | 99.3 | 95.6 | 115 | 95.2 | 112 | 98.3 | 97.7 | 103 | 99.3 | 83.3 | 73.2 | 110 | 73.4
CC(C)(C)NC(=O)[C@H]1CC[C@H]2[C@@H]3CC[C@H]4NC(=O)C=C[C@]4(C)[C@H]3CC[C@]12C [Finasteride] (100 nM) | 100 | 101 | 96.6 | 109 | 104 | 104 | 97.8 | 95.7 | 94.9 | 110 | 98.5 | 107 | 114 | 99.2 | 105 | 98.9 | 108 | 104 | 87.7 | 102 | 83.5 | 103 | 102 | 85.2 | 104 | 99.7 | 98.8 | 95.4 | 100 | 94.8 | 100 | 99 | 107 | 93.1 | 57.3 | 101 | 101
CN[C@@H](C)C(=O)N[C@H]1CN(C(=O)CC(C)C)CC[C@H]2CC[C@@H](C(=O)NC(c3ccccc3)c3ccccc3)N2C1=O [AT-406] (100 nM) | 47.4 | 99.9 | 95.9 | 89.8 | 102 | 102 | 79.1 | 103 | 103 | 111 | 86.6 | 105 | 92.5 | 54 | 100 | 103 | 102 | 63.9 | 109 | 68.8 | 86.4 | 102 | 104 | 104 | 101 | 95.2 | 114 | 101 |  | 76.2 | 83 | 94.9 | 97.2 | 70.4 |  | 35.2 | 96.3
CC(C)C[C@H](NC(=O)[C@@H](COC(C)(C)C)NC(=O)[C@H](Cc1ccc(O)cc1)NC(=O)[C@H](CO)NC(=O)[C@H](Cc1c[nH]c2ccccc12)NC(=O)[C@H](Cc1cnc[nH]1)NC(=O)[C@@H]1CCC(=O)N1)C(=O)N[C@@H](CCCNC(=N)N)C(=O)N1CCC[C@H]1C(=O)NNC(N)=O [Goserelin] (100 nM) | 103 | 92.7 | 99.9 | 101 | 97.4 | 94.9 | 94.2 | 95.8 | 102 | 94 | 97.3 | 101 | 103 | 99.2 | 97.1 | 98.7 | 93.8 | 99 | 71 | 108 | 108 | 105 | 97.8 | 99.1 | 86.3 | 89.5 | 129 | 98.9 | 99.8 | 89.7 | 96.2 | 101 | 78.9 | 55.7 | 87.4 | 89.7 | 60.7
CC(O)(CS(=O)(=O)c1ccc(F)cc1)C(=O)Nc1ccc(C#N)c(C(F)(F)F)c1 (configuration not stated) [Bicalutamide] (100 nM) | 102 | 113 | 100 | 114 | 105 | 107 | 103 | 100 | 105 | 106 | 98.9 | 107 | 105 | 108 | 96.7 | 103 | 110 | 117 | 80.7 | 85 | 115 | 108 | 100 | 89.8 | 116 | 106 | 131 | 85.1 | 95.9 | 108 | 99.5 | 102 | 90.6 | 107 | 102 | 110 | 98.3
CC[C@H](CO)Nc1nc(NCc2ccccc2)c2ncn(C(C)C)c2n1 [Seliciclib] (100 nM) | 102 | 106 | 101 | 114 | 104 | 107 | 110 | 94.2 | 102 | 97.1 | 98.6 | 105 | 97.6 | 105 | 104 | 106 | 112 | 99.8 | 101 | 102 | 105 | 104 | 101 | 107 | 109 | 118 | 102 | 104 | 92.4 | 61.4 | 98.4 | 97.1 | 100 | 82.7 | 108 | 96 | 105
CC(=O)[C@]1(O)Cc2c(O)c3c(c(O)c2[C@@H](O[C@H]2C[C@H](N)[C@H](O)[C@H](C)O2)C1)C(=O)c1ccccc1C3=O [Idarubicin] (10 nM) | 89.7 | 105 | 101 | 110 | 96 | 107 | 118 | 99.2 | 92.9 | 100 | 105 | 95.9 | 106 | 98.7 | 94.5 | 109 | 102 | 109 | 73.7 | 83.3 | 105 | 104 | 100 | 97.6 | 113 | 55.8 | 118 |  | 97.7 | 96 | 97.7 | 99.2 | 114 | 114 | 93 | 106 | 79.8
CNC(=O)c1ccccc1Sc1ccc2c(/C=C/c3ccccn3)n[nH]c2c1 [Axitinib] (100 nM) | 107 | 103 | 102 | 110 | 111 | 90.5 | 101 | 97.8 | 93.8 | 100 | 109 | 102 | 104 | 104 | 98.5 | 102 | 112 | 111 | 81.6 | 113 | 116 | 110 | 104 | 96 | 113 | 102 | 132 | 98.7 | 104 |  | 99.2 | 102 | 111 | 105 | 108 | 105 | 107

From the supplement of paper PMC4862054
